Patent US10597388B2, “Pyridazinone herbicides” (FMC CORPORATION, priority 2014, dated 2020)

Columns and labels:
Assay in all cases: Test D controlled growth environment herbicide test, pre- and postemergence
Format in all cases: in vivo
[1] = test system: Russian thistle (Salsola kali)
Excerpt: (§1) Seeds of plant species selected from bluegrass (annual bluegrass, Poa annua), blackgrass (Alopecurus myosuroides), Canada thistle (Cirsium arvense), canarygrass (Phalaris minor), chickweed (common chickweed, Stellaria media), geranium, cutleaf (cutleaf geranium, Geranium dissectum), galium (catchweed bedstraw, Galium aparine), bromegrass, downy (downy bromegrass, Bromus tectorum), field poppy (Papaver rhoeas), field violet (Viola arvensis), foxtail, green (green foxtail, Setaria viridis), deadnettle (henbit deadnettle, Lamium amplexicaule), ryegrass, Italian (Italian ryegrass, Lolium multiflorum), kochia (Kochia scoparia), lambsquarters (Chenopodium album), oilseed rape (Brassica napus), pigweed (Amaranthus retroflexus), chamomile (scentless chamomile, Matricaria inodora), Russian thistle (Salsola kali), speedwell (bird's-eye speedwell, Veronica persica), barley, spring (spring barley, Hordeum vulgare), wheat, spring (spring wheat, Triticum aestivum), buckwheat, wild (wild buckwheat, Polygonum convolvulus), mustard, wild (wild mustard, Sinapis arvensis), oat, wild (wild oat, Avena fatua), radish, wild (wild radish, Raphanus raphanistrum), windgrass (Apera spica-venti), barley, winter (winter barley, Hordeum vulgare), and wheat, winter (winter wheat, Triticum aestivum) were planted into a silt loam soil and treated preemergence with test chemicals formulated in a non-phytotoxic solvent mixture which included a surfactant.
(§2) At the same time, these species were planted in pots containing Redi-Earth® planting medium (Scotts Company, 14111 Scottslawn Road, Marysville, Ohio 43041) comprising spaghnum peat moss, vermiculite, wetting agent and starter nutrients and treated with postemergence applications of the test chemicals formulated in the same manner. Plants ranged in height from 2 to 18 cm (1- to 4-leaf stage). Treated plants and controls were maintained in a controlled growth environment for 14 to 21 d after which time all species were compared to controls and visually evaluated. Plant response ratings, summarized in Table D, are based on a scale of 0 to 100 where 0 is no effect and 100 is complete control. A dash (-) response means no test result.

[2] = test system: barley, spring (spring barley, Hordeum vulgare)
Excerpt: as §1, §2

[3] = test system: bluegrass (annual bluegrass, Poa annua)
Excerpt: as §1, §2

[4] = test system: deadnettle (henbit deadnettle, Lamium amplexicaule)
Excerpt: as §1, §2

[5] = test system: field violet (Viola arvensis)
Excerpt: as §1, §2

[6] = test system: foxtail, green (green foxtail, Setaria viridis)
Excerpt: as §1, §2

kochia (Kochia scoparia) = test system: kochia (Kochia scoparia)
Excerpt: as §1, §2

[7] = test system: mustard, wild (wild mustard, Sinapis arvensis)
Excerpt: as §1, §2

[8] = test system: oat, wild (wild oat, Avena fatua)
Excerpt: as §1, §2

[9] = test system: pigweed (Amaranthus retroflexus)
Excerpt: as §1, §2

[10] = test system: wheat, spring (spring wheat, Triticum aestivum)
Excerpt: as §1, §2

[11] = test system: wheat, winter (winter wheat, Triticum aestivum)
Excerpt: as §1, §2

[12] = test system: windgrass (Apera spica-venti)
Excerpt: as §1, §2

[13] = Postemergence, 31 g ai/ha, scale 0 to 100 (0 no effect, 100 complete control)
[14] = Postemergence, 125 g ai/ha, visual rating on scale 0 (no effect) to 100 (complete control), 14 to 21 d
[15] = Postemergence, 250 g ai/ha, scale 0 to 100 (0 no effect, 100 complete control)
[16] = Preemergence, 125 g ai/ha, scale 0 to 100 (0 no effect, 100 complete control)
[17] = Preemergence, 250 g ai/ha, scale 0 to 100 (0 no effect, 100 complete control)
[18] = postemergence, 62 g ai/ha, scale 0 to 100, 0 no effect, 100 complete control
[19] = Preemergence, 62 g ai/ha, scale 0 to 100 (0 no effect, 100 complete control)

Cc1cc(C)c2sc(C)c(-c3c(OC(=O)OCCCl)c(C)nn(C)c3=O)c2c1 [Compound 85]
Russian Thistle plant response rating [1, 13]: 65
Plant response rating, Russian Thistle [1, 14]: 80
Plant response rating, Russian Thistle [1, 15]: 90
Plant response rating (scale of 0 to 100), Russian Thistle ([1]; Preemergence, 31 g ai/ha): 5
Plant response rating (scale of 0 to 100), Russian Thistle ([1]; Preemergence, 62 g ai/ha): 10
Plant response rating, Russian Thistle [1, 16]: 25
Plant response rating, Russian Thistle [1, 17]: 75
Plant response rating, Russian Thistle [1, 18]: 75
Barley, Spring plant response rating [2, 13]: 0
Plant response rating, Barley, Spring [2, 14]: 15
Plant response rating, Barley, Spring [2, 15]: 20
Plant response rating (scale of 0 to 100), Barley, Spring ([2]; Preemergence, 31 g ai/ha): 0
Plant response rating, Barley, Spring [2, 19]: 0
Plant response rating, Barley, Spring [2, 16]: 0
Plant response rating, Barley, Spring [2, 17]: 5
Plant response rating, Barley, Spring [2, 18]: 0
Bluegrass plant response rating [3, 13]: 10
Plant response rating, Bluegrass [3, 14]: 25
Plant response rating, Bluegrass [3, 15]: 40
Plant response rating (scale of 0 to 100), Bluegrass ([3]; Preemergence, 31 g ai/ha): 40
Plant response rating, Bluegrass [3, 19]: 60
Plant response rating, Bluegrass [3, 16]: 65
Plant response rating, Bluegrass [3, 17]: 75
Plant response rating, Bluegrass [3, 18]: 20
Deadnettle plant response rating [4, 13]: 10
Plant response rating, Deadnettle [4, 14]: 40
Plant response rating, Deadnettle [4, 15]: 45
Plant response rating (scale of 0 to 100), Deadnettle ([4]; Preemergence, 31 g ai/ha): 0
Plant response rating (scale of 0 to 100), Deadnettle ([4]; Preemergence, 62 g ai/ha): 0
Plant response rating, Deadnettle [4, 16]: 10
Plant response rating, Deadnettle [4, 17]: 35
Plant response rating, Deadnettle [4, 18]: 15
Field Violet plant response rating [5, 13]: 65
Plant response rating, Field Violet [5, 14]: 75
Plant response rating, Field Violet [5, 15]: 90
Plant response rating (scale of 0 to 100), Field Violet ([5]; Preemergence, 31 g ai/ha): 65
Plant response rating (scale of 0 to 100), Field Violet ([5]; Preemergence, 62 g ai/ha): 70
Plant response rating, Field Violet [5, 16]: 95
Plant response rating, Field Violet [5, 17]: 100
Plant response rating, Field Violet [5, 18]: 65
Foxtail, Green plant response rating [6, 13]: 75
Plant response rating, Foxtail, Green [6, 14]: 85
Plant response rating, Foxtail, Green [6, 15]: 85
Plant response rating (scale of 0 to 100), Foxtail, Green ([6]; Preemergence, 31 g ai/ha): 25
Plant response rating (scale of 0 to 100), Foxtail, Green ([6]; Preemergence, 62 g ai/ha): 55
Plant response rating, Foxtail, Green [6, 16]: 100
Plant response rating, Foxtail, Green [6, 17]: 100
Plant response rating, Foxtail, Green [6, 18]: 80
Kochia plant response rating (kochia (Kochia scoparia); [13]): 40
Plant response rating, Kochia (kochia (Kochia scoparia); [14]): 70
Plant response rating, Kochia (kochia (Kochia scoparia); [15]): 75
Plant response rating (scale of 0 to 100), Kochia (kochia (Kochia scoparia); Preemergence, 31 g ai/ha): 5
Plant response rating (scale of 0 to 100), Kochia (kochia (Kochia scoparia); Preemergence, 62 g ai/ha): 10
Plant response rating, Kochia (kochia (Kochia scoparia); [16]): 10
Plant response rating, Kochia (kochia (Kochia scoparia); [17]): 45
Plant response rating, Kochia (kochia (Kochia scoparia); [18]): 65
Mustard, Wild plant response rating [7, 13]: 10
Plant response rating, Mustard, Wild [7, 14]: 30
Plant response rating, Mustard, Wild [7, 15]: 80
Plant response rating (scale of 0 to 100), Mustard, Wild ([7]; Preemergence, 31 g ai/ha): 25
Plant response rating (scale of 0 to 100), Mustard, Wild ([7]; Preemergence, 62 g ai/ha): 25
Plant response rating, Mustard, Wild [7, 16]: 35
Plant response rating, Mustard, Wild [7, 17]: 40
Plant response rating, Mustard, Wild [7, 18]: 25
Oat, Wild plant response rating [8, 13]: 75
Plant response rating, Oat, Wild [8, 14]: 95
Plant response rating, Oat, Wild [8, 15]: 100
Plant response rating (scale of 0 to 100), Oat, Wild ([8]; Preemergence, 31 g ai/ha): 75
Plant response rating (scale of 0 to 100), Oat, Wild ([8]; Preemergence, 62 g ai/ha): 75
Plant response rating, Oat, Wild [8, 16]: 85
Plant response rating, Oat, Wild [8, 17]: 90
Plant response rating, Oat, Wild [8, 18]: 85
Pigweed plant response rating [9, 13]: 75
Plant response rating, Pigweed [9, 14]: 85
Plant response rating, Pigweed [9, 15]: 85
Plant response rating (scale of 0 to 100), Pigweed ([9]; Preemergence, 31 g ai/ha): 95
Plant response rating (scale of 0 to 100), Pigweed ([9]; Preemergence, 62 g ai/ha): 100
Plant response rating, Pigweed [9, 16]: 100
Plant response rating, Pigweed [9, 17]: 100
Plant response rating, Pigweed [9, 18]: 80
Wheat, Spring plant response rating [10, 13]: 0
Plant response rating, Wheat, Spring [10, 14]: 15
Plant response rating, Wheat, Spring [10, 15]: 20
Plant response rating (scale of 0 to 100), Wheat, Spring ([10]; Preemergence, 31 g ai/ha): 0
Plant response rating (scale of 0 to 100), Wheat, Spring ([10]; Preemergence, 62 g ai/ha): 0
Plant response rating, Wheat, Spring [10, 16]: 15
Plant response rating, Wheat, Spring [10, 17]: 40
Plant response rating, Wheat, Spring [10, 18]: 0
Wheat, Winter plant response rating [11, 13]: 0
Plant response rating, Wheat, Winter [11, 14]: 0
Plant response rating, Wheat, Winter [11, 15]: 10
Plant response rating (scale of 0 to 100), Wheat, Winter ([11]; Preemergence, 31 g ai/ha): 0
Plant response rating (scale of 0 to 100), Wheat, Winter ([11]; Preemergence, 62 g ai/ha): 0
Plant response rating, Wheat, Winter [11, 16]: 5
Plant response rating, Wheat, Winter [11, 17]: 15
Plant response rating, Wheat, Winter [11, 18]: 0
Windgrass plant response rating [12, 13]: 60
Plant response rating, Windgrass [12, 14]: 80
Plant response rating, Windgrass [12, 15]: 85
Plant response rating (scale of 0 to 100), Windgrass ([12]; Preemergence, 31 g ai/ha): 55
Plant response rating (scale of 0 to 100), Windgrass ([12]; Preemergence, 62 g ai/ha): 70
Plant response rating, Windgrass [12, 16]: 95
Plant response rating, Windgrass [12, 17]: 100
Plant response rating, Windgrass [12, 18]: 70
